Among the data in ChEMBL document CHEMBL5291721, “A preclinical secondary pharmacology resource illuminates target-adverse drug reaction associations of marketed drugs” (Nat Commun, 2023) are AC50 values, retold here.

One assay addresses T1, Adenosine receptor A1 (Homo sapiens, UniProt P30542).
T1 sequence (P30542 whole entry): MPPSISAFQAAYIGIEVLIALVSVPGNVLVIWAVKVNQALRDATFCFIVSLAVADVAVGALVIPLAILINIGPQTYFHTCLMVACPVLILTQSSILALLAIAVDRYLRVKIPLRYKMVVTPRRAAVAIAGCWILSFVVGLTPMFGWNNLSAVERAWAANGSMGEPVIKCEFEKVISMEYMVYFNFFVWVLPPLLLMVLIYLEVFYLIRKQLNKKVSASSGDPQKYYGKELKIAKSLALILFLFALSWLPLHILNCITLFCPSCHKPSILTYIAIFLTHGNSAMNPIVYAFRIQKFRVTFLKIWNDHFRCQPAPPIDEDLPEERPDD

In assay [1] the target is T2, Alpha-2C adrenergic receptor (Homo sapiens, UniProt P18825).
T2 sequence (P18825 whole entry): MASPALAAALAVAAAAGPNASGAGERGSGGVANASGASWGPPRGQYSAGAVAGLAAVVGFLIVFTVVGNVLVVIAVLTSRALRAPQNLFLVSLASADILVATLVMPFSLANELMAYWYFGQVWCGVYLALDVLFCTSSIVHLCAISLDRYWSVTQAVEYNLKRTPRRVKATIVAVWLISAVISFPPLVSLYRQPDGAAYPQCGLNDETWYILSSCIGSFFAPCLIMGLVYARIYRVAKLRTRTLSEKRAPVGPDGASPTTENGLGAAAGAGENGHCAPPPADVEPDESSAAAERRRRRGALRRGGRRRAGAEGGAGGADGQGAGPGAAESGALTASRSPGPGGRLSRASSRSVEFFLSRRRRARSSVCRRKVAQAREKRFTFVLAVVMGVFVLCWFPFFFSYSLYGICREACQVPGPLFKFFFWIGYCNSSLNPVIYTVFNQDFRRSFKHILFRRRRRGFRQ
Format: functional.

Assay [2] concerns the target T3, 5-hydroxytryptamine receptor 1A (Homo sapiens, UniProt P08908).
T3 sequence (P08908 whole entry): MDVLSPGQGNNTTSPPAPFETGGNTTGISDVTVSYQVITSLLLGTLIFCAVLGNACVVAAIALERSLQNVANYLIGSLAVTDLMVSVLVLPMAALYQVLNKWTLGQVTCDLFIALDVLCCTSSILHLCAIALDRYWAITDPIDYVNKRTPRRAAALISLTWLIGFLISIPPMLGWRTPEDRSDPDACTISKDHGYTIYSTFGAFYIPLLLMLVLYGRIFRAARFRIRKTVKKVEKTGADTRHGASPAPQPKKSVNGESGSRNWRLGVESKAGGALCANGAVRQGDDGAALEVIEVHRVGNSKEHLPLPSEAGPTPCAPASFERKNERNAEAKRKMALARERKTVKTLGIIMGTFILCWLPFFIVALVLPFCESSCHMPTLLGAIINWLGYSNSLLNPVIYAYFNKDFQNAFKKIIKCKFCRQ
Format: functional, cell-based.

Assay [3] has as its target T4, 5-hydroxytryptamine receptor 2C (Homo sapiens, UniProt P28335).
T4 sequence (P28335 whole entry): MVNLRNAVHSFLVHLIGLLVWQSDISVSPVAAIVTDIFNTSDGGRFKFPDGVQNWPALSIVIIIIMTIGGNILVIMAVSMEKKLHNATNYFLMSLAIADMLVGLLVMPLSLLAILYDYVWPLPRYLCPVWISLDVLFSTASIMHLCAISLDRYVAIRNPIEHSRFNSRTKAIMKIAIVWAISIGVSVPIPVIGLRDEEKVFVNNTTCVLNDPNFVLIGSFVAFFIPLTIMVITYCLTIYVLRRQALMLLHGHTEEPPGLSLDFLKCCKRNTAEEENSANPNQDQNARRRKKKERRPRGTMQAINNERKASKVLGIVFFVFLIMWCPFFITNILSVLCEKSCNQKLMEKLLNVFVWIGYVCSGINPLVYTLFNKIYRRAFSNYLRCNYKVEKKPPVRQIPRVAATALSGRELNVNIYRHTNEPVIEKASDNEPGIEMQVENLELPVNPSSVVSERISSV

For assay [4], the target named is T5, 5-hydroxytryptamine receptor 3A (Homo sapiens, UniProt P46098).
T5 sequence (P46098 whole entry): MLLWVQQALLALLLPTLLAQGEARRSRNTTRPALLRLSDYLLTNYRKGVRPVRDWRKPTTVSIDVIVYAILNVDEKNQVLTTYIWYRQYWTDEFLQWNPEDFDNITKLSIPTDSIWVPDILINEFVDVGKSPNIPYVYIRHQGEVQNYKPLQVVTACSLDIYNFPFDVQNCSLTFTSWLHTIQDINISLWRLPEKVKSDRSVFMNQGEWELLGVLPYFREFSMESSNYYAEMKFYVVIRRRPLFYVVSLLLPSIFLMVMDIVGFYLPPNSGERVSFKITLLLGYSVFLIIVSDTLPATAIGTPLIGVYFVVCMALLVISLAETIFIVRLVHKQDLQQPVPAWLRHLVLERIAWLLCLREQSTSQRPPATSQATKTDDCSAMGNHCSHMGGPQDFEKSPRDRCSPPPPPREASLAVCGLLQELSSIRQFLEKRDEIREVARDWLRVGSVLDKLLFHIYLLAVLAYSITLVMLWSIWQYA
The format is functional.

Assay [5] has as its target T6, Prostaglandin G/H synthase 1 (Rattus norvegicus, UniProt Q63921).
T6 sequence (Q63921 whole entry): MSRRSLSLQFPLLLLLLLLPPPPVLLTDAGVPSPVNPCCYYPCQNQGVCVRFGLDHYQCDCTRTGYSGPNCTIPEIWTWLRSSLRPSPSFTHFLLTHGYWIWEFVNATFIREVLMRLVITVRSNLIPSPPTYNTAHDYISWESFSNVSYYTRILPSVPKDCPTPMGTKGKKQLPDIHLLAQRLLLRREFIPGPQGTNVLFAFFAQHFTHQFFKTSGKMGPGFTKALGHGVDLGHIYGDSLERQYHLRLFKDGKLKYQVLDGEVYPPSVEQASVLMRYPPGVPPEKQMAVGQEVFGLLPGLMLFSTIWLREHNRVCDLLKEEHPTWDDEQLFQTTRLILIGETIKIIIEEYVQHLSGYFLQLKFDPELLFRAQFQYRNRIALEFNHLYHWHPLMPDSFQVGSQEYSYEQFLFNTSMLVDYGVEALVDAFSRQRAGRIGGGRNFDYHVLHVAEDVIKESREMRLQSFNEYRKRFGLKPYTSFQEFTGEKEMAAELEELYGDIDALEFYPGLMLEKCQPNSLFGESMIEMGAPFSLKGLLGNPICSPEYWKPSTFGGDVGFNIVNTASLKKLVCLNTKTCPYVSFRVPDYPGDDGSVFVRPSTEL
The format is functional.

Assay [6] deals with cGMP-inhibited 3',5'-cyclic phosphodiesterase 3A (Homo sapiens, UniProt Q14432). Format: functional.

Structures are written as SMILES.
Further: assay procedure not described here.

Chain of cGMP-inhibited 3',5'-cyclic phosphodiesterase 3A (Q14432 whole entry): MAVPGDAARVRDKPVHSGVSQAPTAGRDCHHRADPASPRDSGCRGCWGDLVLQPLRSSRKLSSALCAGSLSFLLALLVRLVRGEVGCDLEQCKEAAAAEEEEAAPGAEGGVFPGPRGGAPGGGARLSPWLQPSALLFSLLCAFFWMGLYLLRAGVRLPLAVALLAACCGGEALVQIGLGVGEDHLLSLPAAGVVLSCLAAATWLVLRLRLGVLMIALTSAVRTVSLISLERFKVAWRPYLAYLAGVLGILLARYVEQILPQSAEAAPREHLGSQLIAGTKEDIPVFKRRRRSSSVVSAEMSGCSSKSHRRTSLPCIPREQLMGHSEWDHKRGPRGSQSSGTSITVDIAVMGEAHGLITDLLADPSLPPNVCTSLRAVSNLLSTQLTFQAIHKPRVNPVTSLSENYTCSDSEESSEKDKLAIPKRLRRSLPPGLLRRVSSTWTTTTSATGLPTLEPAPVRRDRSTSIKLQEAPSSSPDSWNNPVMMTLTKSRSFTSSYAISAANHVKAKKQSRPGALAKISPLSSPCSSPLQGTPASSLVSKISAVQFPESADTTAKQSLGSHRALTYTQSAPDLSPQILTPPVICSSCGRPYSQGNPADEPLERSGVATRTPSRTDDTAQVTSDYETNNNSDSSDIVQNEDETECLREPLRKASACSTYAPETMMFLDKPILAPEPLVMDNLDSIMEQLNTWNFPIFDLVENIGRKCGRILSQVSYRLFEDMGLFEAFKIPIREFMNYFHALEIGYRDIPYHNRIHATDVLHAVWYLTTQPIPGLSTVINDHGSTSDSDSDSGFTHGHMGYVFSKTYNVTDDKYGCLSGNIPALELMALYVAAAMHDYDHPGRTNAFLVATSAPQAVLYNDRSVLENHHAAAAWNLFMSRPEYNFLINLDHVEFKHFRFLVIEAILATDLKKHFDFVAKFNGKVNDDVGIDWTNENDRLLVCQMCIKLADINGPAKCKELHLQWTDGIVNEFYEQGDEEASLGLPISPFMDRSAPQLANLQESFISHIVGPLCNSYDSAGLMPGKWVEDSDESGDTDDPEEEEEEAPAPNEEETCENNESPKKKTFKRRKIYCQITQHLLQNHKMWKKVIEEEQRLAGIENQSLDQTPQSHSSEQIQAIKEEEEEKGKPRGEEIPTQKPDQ

As a reminder, the AC50 is the midpoint of the concentration-response curve, whichever way the signal moves. Lower therefore signals greater potency. With `CCCC(CCC)C(N)=O` [VALPROMIDE], the AC50 on Adenosine receptor A1 is greater than 30 µM; in assay [1], greater than 10 µM; in assay [2], greater than 30 µM; in assay [3] it was greater than 30 µM; in assay [4], greater than 30 µM; in assay [5] it was greater than 30 µM. In assay [6], this molecule showed an AC50 greater than 30 µM.

As to `CCOC(=O)C1=C[C@]2(CC)CCCN3CCc4c(n1c1ccccc41)[C@@H]32` [VINPOCETINE], the AC50 was 30 µM at Adenosine receptor A1; 1.1 µM in assay [1]; greater than 30 µM in assay [2]; greater than 30 µM in assay [3]; greater than 30 µM in assay [4]; greater than 30 µM in assay [5]. In assay [6], the AC50 is greater than 30 µM.

For `Cc1cc(C(C)(C)C)cc(C)c1CC1=NCCN1` [XYLOMETAZOLINE], the concentration at half-maximal activity (AC50) on Adenosine receptor A1 was greater than 30 µM; in assay [1] it was 0.239 µM; in assay [2], 0.0178 µM; in assay [3], 10 µM; in assay [4], greater than 30 µM; in assay [5], greater than 30 µM. Moreover, in assay [6], the half-maximal activity concentration (AC50) is greater than 30 µM.
